Experiment [1] concerns the target T1, FLT3 Autoinh. (Homo sapiens, UniProt P36888).
T1 construct: purchased DiscoverX (KINOMEscan); host or cells: E. coli BL21-derived host (T7 phage) or HEK-293
T1 sequence (P36888 564-993 limits assumed): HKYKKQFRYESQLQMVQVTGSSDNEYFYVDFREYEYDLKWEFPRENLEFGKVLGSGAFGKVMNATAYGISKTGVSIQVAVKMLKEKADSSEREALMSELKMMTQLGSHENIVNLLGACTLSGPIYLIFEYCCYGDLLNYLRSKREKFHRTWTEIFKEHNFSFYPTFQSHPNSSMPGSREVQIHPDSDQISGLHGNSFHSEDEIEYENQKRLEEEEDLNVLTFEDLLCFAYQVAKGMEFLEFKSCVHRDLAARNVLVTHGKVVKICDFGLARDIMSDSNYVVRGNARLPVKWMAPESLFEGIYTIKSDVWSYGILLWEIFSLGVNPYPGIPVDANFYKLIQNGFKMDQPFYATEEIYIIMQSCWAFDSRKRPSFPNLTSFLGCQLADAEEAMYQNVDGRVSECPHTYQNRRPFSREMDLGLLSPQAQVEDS
Put plainly: DiscoverX KINOMEscan competition binding assay, FLT3 Autoinh. The following applies: 11-point 3-fold dilution. An excerpt:
(§1) […]. […] As a result, the data report thermodynamic interaction affinities (Kd values), rather than IC50 values that are dependent on ATP concentrations. The assay uses a DNA-tagged version of the protein kinase, and an immobilized ligand bound to a solid support. Compounds that directly or indirectly prevent kinase binding to the immobilized ligand reduce the amount of kinase captured on the solid support, which is detected using an ultra-sensitive qPCR method. Affinity constants reported from the assay have been reported to be independent of the immobilized ligand used that is coupled to the solid support (See supplemental information in Fabian, M. A. et. al., (2005) Nat. Biotechnol. 23, 329-336; Wodicka, L. M. et. al., (2010) Chem. Biol. 17, 1241-1249.)
(§2) Kinase-tagged T7 phage strains were prepared in an E. coli host derived from the BL21 strain. E. coli were grown to log-phase and infected with T7 phage and incubated with shaking at 32° C. until lysis. The lysates were centrifuged and filtered to remove cell debris. The remaining kinases were produced in HEK-293 cells and subsequently tagged with DNA for qPCR detection. Streptavidin-coated magnetic beads were treated with biotinylated small molecule ligands for 30 minutes at room temperature to generate affinity resins for kinase assays. The liganded beads were blocked with excess biotin and washed with blocking buffer (SeaBlock (Pierce), 1% BSA, 0.05% Tween 20, 1 mM DTT) to remove unbound ligand and to reduce non-specific binding. […] Test compounds were prepared as 111× stocks in 100% DMSO. Kds were determined using an 11-point 3-fold compound dilution series with three DMSO control points. All compounds for Kd measurements are distributed by acoustic transfer (non-contact dispensing) in 100% DMSO. The compounds were then diluted directly into the assays such that the final concentration of DMSO was 0.9%. All reactions were performed in polypropylene 384-well plates. Each was a final volume of 0.02 mL. […] The kinase concentration in the eluates was measured by qPCR.
(§3) Binding constants (Kds) were calculated with a standard dose-response curve using the Hill equation. The Hill Slope was set to −1. Curves were fitted using a non-linear least square fit with the Levenberg-Marquardt algorithm.

The target of experiment [2] is T2, FLT3 D835Y (Homo sapiens, UniProt P36888, D835Y).
T2 construct: purchased DiscoverX (KINOMEscan); host or cells: E. coli BL21-derived host (T7 phage) or HEK-293
T2 sequence (P36888 27-993 D835Y): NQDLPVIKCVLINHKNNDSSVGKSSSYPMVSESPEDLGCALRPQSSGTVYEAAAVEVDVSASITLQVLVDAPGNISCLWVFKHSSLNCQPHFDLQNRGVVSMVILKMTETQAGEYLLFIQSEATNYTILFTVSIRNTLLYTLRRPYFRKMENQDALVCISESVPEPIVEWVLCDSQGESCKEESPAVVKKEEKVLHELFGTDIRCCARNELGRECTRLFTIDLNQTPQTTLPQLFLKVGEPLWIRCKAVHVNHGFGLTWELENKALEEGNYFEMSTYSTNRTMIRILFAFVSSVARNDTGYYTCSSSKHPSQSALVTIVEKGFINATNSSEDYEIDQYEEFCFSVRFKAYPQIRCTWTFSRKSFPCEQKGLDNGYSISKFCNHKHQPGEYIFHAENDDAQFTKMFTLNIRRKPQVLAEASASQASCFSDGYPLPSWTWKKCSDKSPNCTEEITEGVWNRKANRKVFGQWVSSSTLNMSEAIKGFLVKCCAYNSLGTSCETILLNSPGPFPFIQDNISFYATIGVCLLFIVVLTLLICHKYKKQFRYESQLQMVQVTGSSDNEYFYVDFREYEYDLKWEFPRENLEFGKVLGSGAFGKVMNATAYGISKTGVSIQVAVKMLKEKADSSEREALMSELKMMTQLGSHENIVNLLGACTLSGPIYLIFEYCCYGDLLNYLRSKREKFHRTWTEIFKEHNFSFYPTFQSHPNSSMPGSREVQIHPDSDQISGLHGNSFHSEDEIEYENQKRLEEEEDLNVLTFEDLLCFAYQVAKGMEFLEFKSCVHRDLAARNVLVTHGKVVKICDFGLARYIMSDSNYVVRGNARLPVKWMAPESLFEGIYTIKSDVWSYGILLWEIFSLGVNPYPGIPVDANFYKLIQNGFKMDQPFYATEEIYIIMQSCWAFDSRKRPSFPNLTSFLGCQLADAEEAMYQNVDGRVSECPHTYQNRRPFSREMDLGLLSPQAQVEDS
Put plainly: DiscoverX KINOMEscan competition binding assay, FLT3 D835Y. The note with it: 11-point 3-fold dilution.
Source text: as §1, §2, §3

The source of these data is patent US20260226048A1, “MULTI-CYCLIC IRAK AND FLT3 INHIBITING COMPOUNDS AND USES THEREOF” (CHILDREN'S HOSPITAL MEDICAL CENTER, priority 2023, published 2026).

SMILES strings stand for the structures.

The Kd is a measure of binding affinity in units of concentration. As for `COc1cc2ncc(-c3nc(N[C@H]4CNCC[C@@H]4F)ncc3F)n2nc1C1CC1` [Compound 1a, 4-(6-cyclopropyl-7-methoxyimidazo[1,2-b]pyridazin-3-yl)-5-fluoro-N-((3S,4S)-4-fluoropiperidin-3-yl)pyrimidin-2-amine], the Kd in experiment [1] is 2.2 nM; in experiment [2] it was 0.23 nM.
Turning to `FC(F)COc1cc2ncc(-c3ccnc(N[C@H]4CNCC[C@@H]4F)n3)n2nc1C1CC1` [Compound 4a, 4-(6-cyclopropyl-7-(2,2-difluoroethoxy)imidazo[1,2-b]pyridazin-3-yl)-N-((3 S,4S)-4-fluoropiperidin-3-yl)pyrimidin-2-amine], the Kd in experiment [1] came to 21 nM; in experiment [2] it was 0.42 nM.
For `COc1cc2ncc(-c3nc(N[C@H]4CNCC[C@@H]4F)ncc3F)n2nc1C(C)(C)O` [Compound 45a, 2-(3-(5-fluoro-2-(((3S,4S)-4-fluoropiperidin-3-yl)amino)pyrimidin-4-yl)-7-methoxyimidazo[1,2-b]pyridazin-6-yl)propan-2-ol], the figures for the Kd in experiment [1] and in experiment [2] were 11 nM and 0.2 nM, respectively.
Take `CC(C)(O)c1ccc2ncc(-c3nc(N[C@H]4CNCC[C@@H]4F)ncc3F)n2c1` [Compound 46a, 2-(3-(5-fluoro-2-(((3S,4S)-4-fluoropiperidin-3-yl)amino)pyrimidin-4-yl)imidazo[1,2-a]pyridin-6-yl)propan-2-ol]: the Kd was found to be 7.1 nM in experiment [1] and 0.26 nM in experiment [2].
Regarding `COc1cc2ncc(-c3nc(N[C@H]4CNCC[C@@H]4F)ncc3F)n2nc1C1COC1` [Compound 92a, 5-fluoro-N-((3S,4S)-4-fluoropiperidin-3-yl)-4-(7-methoxy-6-(oxetan-3-yl)imidazo[1,2-b]pyridazin-3-yl)pyrimidin-2-amine], the figures for the Kd in experiment [1] and in experiment [2] were 3.3 nM and less than 0.17 nM, respectively.
On to `CC(C)(O)c1cn2c(-c3nc(N[C@H]4CNCC[C@@H]4F)ncc3F)cnc2cn1` [Compound 100a, 2-(3-(5-fluoro-2-(((3S,4S)-4-fluoropiperidin-3-yl)amino)pyrimidin-4-yl)imidazo[1,2-a]pyrazin-6-yl)propan-2-ol], for which the Kd turned out to be 57 nM in experiment [1] and 2.4 nM in experiment [2].
On the same counts, the results for `COc1cc2ncc(-c3nc(N[C@H]4CNCC[C@@H]4F)ncc3F)n2nc1N1CCCS1(=O)=O` [Compound 112a, 2-(3-(5-fluoro-2-(((3S,4S)-4-fluoropiperidin-3-yl)amino)pyrimidin-4-yl)-7-methoxyimidazo[1,2-b]pyridazin-6-yl)isothiazolidine 1,1-dioxide] are 2.7 nM and less than 0.17 nM.
